The values below come from US20240182453A1, “NOVEL SUBSTITUTED PYRAZINE-CARBOXAMIDE DERIVATIVES” (Boehringer Ingelheim International GmbH, priority 2022, published 2024).

The assay concerns the target human metabotropic Glutamate 4 receptor (mGluR4) (Homo sapiens (Human), UniProt Q14833). The experiment in a line: Assay A: in vitro testing of mGluR4 potency (glutamate-induced cAMP lowering, HTRF cAMP). The note with it: HEK293 cells overexpressing human mGluR4; 10 uM L-glutamic acid, 1 uM forskolin; compounds of the present invention. The class given is cell-based. As to the method:
A. In Vitro Testing of mGluR4 Potency
The in vitro activity of the compounds according to the invention may be investigated as follows:
The HEK293 cell overexpressing the human metabotropic Glutamate 4 receptor are thawed at 37° C. and immediately diluted with cell culture medium. After centrifugation, the cell pellet is re-suspended in medium and then distributed from a stirred spinner flask into the wells of the assay plate. The plates are incubated for one hour at room temperature before they are incubated for 24 hours at 37° C./5% CO2. After washing the cells in the plate three times with 80 uL HBSS/HEPES buffer (10 uL buffer remained in the wells after washing), 5 uL per well of compounds diluted in HBSS/HEPES buffer containing 0.2% BSA (final concentration: 0.1%) and 1 mM IBMX (final concentration: 0.5 mM) are added to the wells of the assay plate. Thereafter 5 uL per well of L-Glutamic acid (final concentration: 10 uM), forskolin (final concentration: 1 uM) and 1 mM IBMX (final concentration: 0.5 mM) dissolved in HBSS/HEPES buffer containing 0.2% BSA (final concentration: 0.1%) are added to the assay plate (final DMSO concentration: 1%). Several wells of the assay plate are used either for the positive and the negative controls or for the cAMP standard curve. The assay plate is incubated for 30 minutes at room temperature. Then 5 ul per well of Anti-cAMP-Antibody-d2 solution and 5 ul per well of cAMP-Europium Cryptate dilution are added to all wells of the plate and the plate is incubated another 60 minutes light protected at room temperature. The emission at 615 nm and 665 nm (Excitation wavelength: 320 nm) are measured on the EnVision™ reader (Perkin Elmer). The ratio between the emission at 665 nm and 615 is calculated by the reader. The whole assay is performed in the dark or under green light.
The cAMP standard is prepared by diluting the cAMP stock solution with HBSS/Hepes buffer: 5 μl/well of the cAMP dilutions (in HBSS/Hepes buffer containing 1 mM IBMX and 0.2% BSA—final concentration: 0.5 mM IBMX and 0.1% BSA) are added to 10 ul/well HBSS/Hepes buffer plus 5 ul/well 4% DMSO in HBSS/Hepes containing 0.2% BSA (final DMSO concentration: 1%—like in the wells containing compounds) in the wells of the assay plate. The final cAMP concentrations in the assay plate are: 0, 0.17, 0.69, 2.78, 11.1, 44.5, 178, and 712 nM (two wells/cAMP concentration).
Each assay microtiter plate contained also wells with vehicle controls instead of compound as controls for L-Glutamic acid induced signal (negative control; 100% CTL; 10 uM L-Glutamic acid+1 uM forskolin+0.5 mM IBMX+1% DMSO) and wells with vehicle controls without L-Glutamic acid as controls for non-specific changes in signal (positive control; 0% CTL; 0 uM L-Glutamic acid+1 uM forskolin+0.5 mM IBMX+1% DMSO).
The analysis of the data is performed by the calculation the ratio between the emission at 665 nm and the emission at 615 nm (Em665/Em615 ratio). Thereafter the signals of the compounds are normalized using the positive and negative controls by the following formula:
PoC=100×((Signal Sample−Positive Control)/(Negative Control−Positive Control))

human metabotropic Glutamate 4 receptor (mGluR4), sequence (Q14833 33-912): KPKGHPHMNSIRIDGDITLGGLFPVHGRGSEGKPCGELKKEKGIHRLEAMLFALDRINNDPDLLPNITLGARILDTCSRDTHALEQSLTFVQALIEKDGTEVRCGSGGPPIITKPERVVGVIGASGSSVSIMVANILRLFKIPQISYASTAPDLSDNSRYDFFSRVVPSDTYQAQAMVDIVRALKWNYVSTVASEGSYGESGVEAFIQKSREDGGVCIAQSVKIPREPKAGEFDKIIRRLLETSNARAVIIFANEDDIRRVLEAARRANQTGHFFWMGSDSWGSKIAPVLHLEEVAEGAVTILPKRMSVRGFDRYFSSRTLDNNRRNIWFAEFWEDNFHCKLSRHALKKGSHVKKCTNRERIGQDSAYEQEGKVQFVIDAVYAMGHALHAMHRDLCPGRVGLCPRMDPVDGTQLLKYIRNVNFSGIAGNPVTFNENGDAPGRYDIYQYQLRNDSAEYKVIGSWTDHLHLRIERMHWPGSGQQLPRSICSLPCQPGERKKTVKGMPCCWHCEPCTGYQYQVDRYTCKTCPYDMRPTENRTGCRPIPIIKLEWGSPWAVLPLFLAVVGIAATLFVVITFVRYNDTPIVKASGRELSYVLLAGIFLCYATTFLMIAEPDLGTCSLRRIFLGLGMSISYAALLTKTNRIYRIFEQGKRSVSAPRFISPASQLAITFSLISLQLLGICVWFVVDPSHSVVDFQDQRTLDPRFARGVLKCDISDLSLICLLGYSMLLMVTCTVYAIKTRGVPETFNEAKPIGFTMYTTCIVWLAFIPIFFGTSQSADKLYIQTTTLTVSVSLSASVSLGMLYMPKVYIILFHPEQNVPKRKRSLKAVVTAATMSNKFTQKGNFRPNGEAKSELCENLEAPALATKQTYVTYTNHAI

Consider `CCn1c(C(NC(=O)c2cnc(C)cn2)C2CCOC2)nc2cc(F)c(F)cc21` (single isomer, unassigned) [Example 159, N-[(1-ethyl-5,6-difluoro-1H-1,3-benzodiazol-2-yl)(oxolan-3-yl)methyl]-5-methylpyrazine-2-carboxamide], for which the midpoint of inhibition, the IC50, lay at 30 nM.

Turning to `CCn1c(C(NC(=O)c2cnc(C)cn2)C2CCOC2)nc2cc(F)c(F)cc21` (single isomer, unassigned) [Example 160, N-[(1-ethyl-5,6-difluoro-1H-1,3-benzodiazol-2-yl)(oxolan-3-yl)methyl]-5-methylpyrazine-2-carboxamide], half-maximal inhibition (IC50) was put at 47 nM. Under `CCn1c(C(NC(=O)c2cnc(C)cn2)C2CCOC2)nc2cc(Cl)ccc21` (single isomer, unassigned) [Example 161, N-[(5-chloro-1-ethyl-1H-1,3-benzodiazol-2-yl)(oxolan-3-yl)methyl]-5-methylpyrazine-2-carboxamide] stands 14 nM; under `CCn1c(C(NC(=O)c2cnc(C)cn2)C2CCOC2)nc2cc(Cl)ccc21` (single isomer, unassigned) [Example 162, N-[(5-chloro-1-ethyl-1H-1,3-benzodiazol-2-yl)(oxolan-3-yl)methyl]-5-methylpyrazine-2-carboxamide], 30 nM; under `CCn1c(C(NC(=O)c2cnc(C)cn2)C2CCOC2)nc2ccc(Cl)cc21` (single isomer, unassigned) [Example 163, N-[(6-chloro-1-ethyl-1H-1,3-benzodiazol-2-yl)(oxolan-3-yl)methyl]-5-methylpyrazine-2-carboxamide], 27 nM. Molecule `CCn1c(C(NC(=O)c2cnc(C)cn2)C2CCOC2)nc2ccc(Cl)cc21` (single isomer, unassigned) [Example 164, N-[(6-chloro-1-ethyl-1H-1,3-benzodiazol-2-yl)(oxolan-3-yl)methyl]-5-methylpyrazine-2-carboxamide] came in with a half-inhibitory concentration (IC50) of 35 nM. Under `CCn1c([C@@H](NC(=O)c2cnc(C)cn2)C2CC2)nc2cc(F)ccc21` [Example 1, N-[(S)-cyclopropyl(1-ethyl-5-fluoro-1H-1,3-benzodiazol-2-yl)methyl]-5-methylpyrazine-2-carboxamide] stands 4 nM; under `COCCn1c([C@@H](NC(=O)c2cnc(C)cn2)[C@@H](C)OC)nc2cc(OC(F)(F)F)ccc21` [Example 2, N-[(1R,2R)-2-methoxy-1-[1-(2-methoxyethyl)-5-(trifluoromethoxy)-1H-1,3-benzodiazol-2-yl]propyl]-5-methylpyrazine-2-carboxamide], 2 nM.

Regarding `CCn1c([C@@H](NC(=O)c2cnc(C(F)F)cn2)C2CC2)nc2cc(F)ccc21` [Example 3, N-[(S)-cyclopropyl(1-ethyl-5-fluoro-1H-1,3-benzodiazol-2-yl)methyl]-5-(difluoromethyl)pyrazine-2-carboxamide], inhibition was half-maximal at 3 nM (IC50). `O=C(N[C@H](c1nc2cc(F)ccc2n1CC(F)F)C1CC1)c1cnc(C(F)F)cn1` [Example 4, N-[(S)-cyclopropyl[1-(2,2-difluoroethyl)-5-fluoro-1H-1,3-benzodiazol-2-yl]methyl]-5-(difluoromethyl)pyrazine-2-carboxamide] returned a 50% inhibitory concentration (IC50) of 4 nM. `COCCn1c([C@@H](NC(=O)c2cnc(C(F)F)cn2)C2CC2)nc2cc(F)ccc21` [Example 5, N-[(S)-cyclopropyl[5-fluoro-1-(2-methoxyethyl)-1H-1,3-benzodiazol-2-yl]methyl]-5-(difluoromethyl)pyrazine-2-carboxamide] displayed an IC50 of 5 nM. Under `COCCn1c([C@@H](NC(=O)c2cnc(C)cn2)C2CC2)nc2cc(F)ccc21` [Example 6, N-[(S)-cyclopropyl[5-fluoro-1-(2-methoxyethyl)-1H-1,3-benzodiazol-2-yl]methyl]-5-methylpyrazine-2-carboxamide] stands 7 nM; under `Cc1cnc(C(=O)N[C@H](c2nc3cc(F)ccc3n2C(C)C)C2CC2)cn1` [Example 7, N-[(S)-cyclopropyl[5-fluoro-1-(propan-2-yl)-1H-1,3-benzodiazol-2-yl]methyl]-5-methylpyrazine-2-carboxamide], 4 nM; under `COCCn1c([C@@H](NC(=O)c2cnc(C)cn2)C2CC2)nc2cc(Cl)ccc21` [Example 8, N-[(S)-[5-chloro-1-(2-methoxyethyl)-1H-1,3-benzodiazol-2-yl](cyclopropyl)methyl]-5-methylpyrazine-2-carboxamide], 3 nM. In turn, `Cc1cnc(C(=O)N[C@H](c2nc3c(F)c(C)ccc3n2CC(F)F)C2CC2)cn1` [Example 9, N-[(S)-cyclopropyl[1-(2,2-difluoroethyl)-4-fluoro-5-methyl-1H-1,3-benzodiazol-2-yl]methyl]-5-methylpyrazine-2-carboxamide] displayed an IC50 of 4 nM. For the molecule `Cc1cnc(C(=O)N[C@H](c2nc3cc(F)ccc3n2CC(F)F)C2CC2)cn1` [Example 10, N-[(S)-cyclopropyl[1-(2,2-difluoroethyl)-5-fluoro-1H-1,3-benzodiazol-2-yl]methyl]-5-methylpyrazine-2-carboxamide], half-maximal inhibition (IC50) was put at 5 nM. For the molecule `COCCn1c([C@@H](NC(=O)c2cnc(C(F)F)cn2)C2CC2)nc2cc(Cl)ccc21` [Example 11, N-[(S)-[5-chloro-1-(2-methoxyethyl)-1H-1,3-benzodiazol-2-yl](cyclopropyl)methyl]-5-(difluoromethyl)pyrazine-2-carboxamide], the IC50 is 3 nM. In turn, `COCCn1c([C@@H](NC(=O)c2cnc(C)cn2)C2CC2)nc2cc(OC(F)(F)F)ccc21` [Example 12, N-[(S)-cyclopropyl[1-(2-methoxyethyl)-5-(trifluoromethoxy)-1H-1,3-benzodiazol-2-yl]methyl]-5-methylpyrazine-2-carboxamide] registered an IC50 of 2 nM. In turn, `COCCn1c([C@@H](NC(=O)c2cnc(C)cn2)C2CC2)nc2cc(OC(F)F)ccc21` [Example 13, N-[(S)-cyclopropyl[5-(difluoromethoxy)-1-(2-methoxyethyl)-1H-1,3-benzodiazol-2-yl]methyl]-5-methylpyrazine-2-carboxamide] had an IC50 of 7 nM. Consider `Cc1cnc(C(=O)N[C@H](c2nc3cc(C)c(F)cc3n2CC(F)F)C2CC2)cn1` [Example 15, N-[(S)-cyclopropyl[1-(2,2-difluoroethyl)-6-fluoro-5-methyl-1H-1,3-benzodiazol-2-yl]methyl]-5-methylpyrazine-2-carboxamide], for which the IC50 turned out to be 3 nM. `COCCn1c([C@@H](NC(=O)c2cnc(C)cn2)C2CC2)nc2cc(F)c(F)cc21` [Example 16, N-[(S)-cyclopropyl[5,6-difluoro-1-(2-methoxyethyl)-1H-1,3-benzodiazol-2-yl]methyl]-5-methylpyrazine-2-carboxamide] came in with an IC50 of 5 nM.

On to `CCn1c([C@@H](NC(=O)c2cnc(C)cn2)C(C)C)nc2cc(F)ccc21` [Example 17, N-[(1S)-1-(1-ethyl-5-fluoro-1H-1,3-benzodiazol-2-yl)-2-methylpropyl]-5-methylpyrazine-2-carboxamide], for which the IC50 amounted to 4 nM.

Molecule `COCCn1c([C@@H](NC(=O)c2cnc(C)cn2)C2CC2)nc2c(C)c(C#N)ccc21` [Example 18, N-[(S)-[5-cyano-1-(2-methoxyethyl)-4-methyl-1H-1,3-benzodiazol-2-yl](cyclopropyl)methyl]-5-methylpyrazine-2-carboxamide] displayed an IC50 of 7 nM.

As usually defined, the IC50 is the concentration that gives 50% inhibition. High values mean lower potency, low ones higher potency.
